{"source": "patent US8481284B2", "about": "“Process of preparing conjugates of allium organosulfur compounds with amino acids, peptides, and proteins” (Wisconsin Alumni Research Foundation, priority 2009, dated 2013)", "key": {"[1]": {"system": "quinone reductase (QR) activity in Hepa 1c1c7 cells", "assay": "QR (quinone reductase) induction in Hepa 1c1c7 cells", "assay_type": "cell-based", "settings": "for QR induction in the presence of increasing exogenous GSH: 31 μg/ml conjugate, increasing exogenous GSH in medium; for QR induction at a single dose: 31 μg/ml; for QR induction at a single dose / EC (2-fold QR induction): Hepa 1c1c7 cells; for EC (2-fold QR induction): read-out: CD values (dose where there was a doubling of QR)", "experimental": "Specifically, the mixed disulfide conjugates as prepared similar to the pure conjugates of Example 10 or purified from mixtures prepared in Example 11 were used with the Hepa 1c1c7 cell line as disclosed in Prochaska, et al., 1992. Each conjugate was tested over a dose range and increases in quinone reductase (QR) activity was used as a biomarker for phase II enzyme induction, an established mechanism of cancer chemoprotection. […] Results were considered valid as long as cell viability in the assay was >50% as recommended by the established protocol. Typical experimental results are shown for the CySSPe conjugate (FIG. 11), and summary results are provided for all conjugates in terms of relative potency (CD values) for QR induction (Table 8).\n(§1) Generally, redox modulation and thiol upregulation is considered a defense mechanism to pathological processes in cells. These mechanisms were analyzed in the mixed disulfide conjugates in both Hepa 1c1c7 and RAW 264.7 macrophage cell lines. Evidence of redox modulation was obtained in terms of 1) attenuation of QR inducing activity with increasing reducing capacity of cells through exogenous GSH addition, 2) increases in cellular glutathione (GSH) and 3) export/enrichment of thiols in the extracellular fluid."}, "[2]": {"system": "nitric oxide (NO) in lipopolysaccharide-activated macrophages (RAW 264.7)", "assay": "Inhibition of NO evolution in lipopolysaccharide-activated macrophages (RAW 264.7), Griess reagent", "assay_type": "cell-based, murine", "settings": "Mus musculus, RAW264.7; for IC50: LPS 1 μg/ml, 24 hour incubation; for inhibition at 125 µg/mL: at 125 μg/ml, the highest level tested", "experimental": "Each conjugate was tested over a dose range and the evolution of NO over the 24 hour incubation period was measured as […] by the Griess reagent using established protocols ([…] et al., 1996). The dose where a 50% inhibition of NO evolution occurred (IC50) relative to the control cells without added conjugate was estimated by sigmoidal curve-fitting as a relative measure of anti-inflammatory activity, with lower IC50 values representing greater potency. […] Typical experimental results are shown for the GSSPe conjugate (FIG. 12), and summary results are provided for all conjugates in terms of relative potency (IC50 values) for NO inhibition (Table 9)."}, "RAW 264.7 cells": {"system": "RAW 264.7 cells", "assay": "Thiol export (extracellular thiols, DTNB) by macrophages", "assay_type": "cell-based, murine", "settings": "compared with other species or control cells", "experimental": "FIG. 15 depicts the extracellular thiol concentrations of RAW 264.7 cells treated with CySSR and 5,5′-dithio-bis(2-nitrobenzoic acid) (DTNB) as analyzed in Example 31.\nas §1\nSpecifically, CySSR as prepared in Example 11 was added to macrophages. Thiol export by the macrophages was then analyzed. All CySSR species tested at 31 μg/ml induced thiol export by macrophages by as much as 20-35 times level observed for untreated control cells. Thiols were measured by Ellman's reagent (DTNB). […] Cellular exporting of thiols represents another mechanism by which cells respond to oxidative stress by exporting reducing equivalents to restore extracellular redox homeostasis."}, "[3]": {"system": "intracellular GSH in Hepa 1c1c7 cells", "assay": "Intracellular GSH content of Hepa 1c1c7 cells after conjugate addition", "assay_type": "cell-based", "settings": "over the first 10 hours", "experimental": "Another related consequence of adding the conjugates to the cells was an increase in cellular GSH. This response is considered to be a general antioxidant defense as well as one that provides specific protection to cancer (Kim et al., 2009) and was assessed in the next Example.\nSpecifically, GSSP was prepared similar to the GSSR conjugates in Example 11 and added to Hepa 1c1c7 cells. The changes in intracellular GSH content was measured after lysis of the cells at pre-determined intervals after addition of the GSSP conjugate."}, "[4]": {"settings": "molar equivalent of the μg/ml value"}}, "note": "Like-named read-outs stand apart in the source and are kept apart here."}
{"smiles": "C=CCSSC[C@@H](N)C(=O)O", "note": "[CySSA, S-allyl-L-mercaptocysteine]", "values": [{"measurement": "QR induction in the presence of increasing exogenous GSH", "setting": "[1]", "result": "progressively attenuated"}, {"measurement": "QR induction at a single dose", "setting": "[1]", "result": "nearly a doubling of QR"}, {"measurement": "EC (2-fold QR induction)", "setting": "[1]; cell viability >50%", "result": 26, "unit": "µg/mL"}, {"measurement": "EC (2-fold QR induction)", "setting": "[1]; [4]", "result": 130, "unit": "µM"}, {"measurement": "IC50", "setting": "[2]; cell viability ≧80%", "result": 9, "unit": "µg/mL"}, {"measurement": "IC50", "setting": "[2]; [4]", "result": 47, "unit": "µM"}]}
{"smiles": "CCSSC[C@@H](N)C(=O)O", "note": "[CySSE, S-ethyl-L-mercaptocysteine]", "values": [{"measurement": "EC (2-fold QR induction)", "setting": "[1]; cell viability >50%", "result": 76, "unit": "µg/mL"}, {"measurement": "EC (2-fold QR induction)", "setting": "[1]; [4]", "result": 420, "unit": "µM"}, {"measurement": "IC50", "setting": "[2]; cell viability ≧80%", "result": 102, "unit": "µg/mL"}, {"measurement": "IC50", "setting": "[2]; [4]", "result": 560, "unit": "µM"}]}
{"smiles": "CSSC[C@@H](N)C(=O)O", "note": "[CySSM, S-methyl-L-mercaptocysteine]", "values": [{"measurement": "EC (2-fold QR induction)", "setting": "[1]; cell viability >50%", "result": 89, "unit": "µg/mL"}, {"measurement": "EC (2-fold QR induction)", "setting": "[1]; [4]", "result": 530, "unit": "µM"}, {"measurement": "IC50", "setting": "[2]; cell viability ≧80%", "result": 48, "unit": "µg/mL"}, {"measurement": "IC50", "setting": "[2]; [4]", "result": 290, "unit": "µM"}]}
{"smiles": "CCCSSC[C@@H](N)C(=O)O", "note": "[CySSP, S-propyl-L-mercaptocysteine]", "values": [{"measurement": "EC (2-fold QR induction)", "setting": "[1]; cell viability >50%", "result": 92, "unit": "µg/mL"}, {"measurement": "EC (2-fold QR induction)", "setting": "[1]; [4]", "result": 470, "unit": "µM"}, {"measurement": "IC50", "setting": "[2]; cell viability ≧80%", "result": 63, "unit": "µg/mL"}, {"measurement": "IC50", "setting": "[2]; [4]", "result": 320, "unit": "µM"}]}
{"smiles": "C/C=C/SSC[C@@H](N)C(=O)O", "note": "[CySSPe, S-1-propenyl-L-mercaptocysteine]", "values": [{"measurement": "EC (2-fold QR induction)", "setting": "[1]; cell viability >50%", "result": 4.8, "unit": "µg/mL"}, {"measurement": "EC (2-fold QR induction)", "setting": "[1]; [4]", "result": 25, "unit": "µM"}, {"measurement": "IC50", "setting": "[2]; cell viability ≧80%", "result": 21, "unit": "µg/mL"}, {"measurement": "IC50", "setting": "[2]; [4]", "result": 110, "unit": "µM"}, {"measurement": "thiol efflux / extracellular thiols, in words", "setting": "RAW 264.7 cells", "result": "about half as much thiol efflux as the others"}]}
{"smiles": "C=CCSSC[C@H](NC(=O)CC[C@H](N)C(=O)O)C(=O)NCC(=O)O", "note": "[GSSA, S-2-propenyl-L-mercaptoglutathione]", "values": [{"measurement": "QR induction in the presence of increasing exogenous GSH", "setting": "[1]", "result": "progressively attenuated"}, {"measurement": "QR induction at a single dose", "setting": "[1]", "result": "nearly a doubling of QR"}, {"measurement": "EC (2-fold QR induction)", "setting": "[1]; cell viability >50%", "result": 33, "unit": "µg/mL"}, {"measurement": "EC (2-fold QR induction)", "setting": "[1]; [4]", "result": 87, "unit": "µM"}, {"measurement": "IC50", "setting": "[2]; cell viability ≧80%", "result": 87, "unit": "µg/mL"}, {"measurement": "IC50", "setting": "[2]; [4]", "result": 230, "unit": "µM"}]}
{"smiles": "CCSSC[C@H](NC(=O)CC[C@H](N)C(=O)O)C(=O)NCC(=O)O", "note": "[GSSE, S-ethyl-L-mercaptoglutathione]", "values": [{"measurement": "EC (2-fold QR induction)", "setting": "[1]; cell viability >50%", "result": 72, "unit": "µg/mL"}, {"measurement": "EC (2-fold QR induction)", "setting": "[1]; [4]", "result": 200, "unit": "µM"}, {"measurement": "inhibition at 125 µg/mL", "setting": "[2]", "result": 25, "unit": "%"}]}
{"smiles": "CSSC[C@H](NC(=O)CC[C@H](N)C(=O)O)C(=O)NCC(=O)O", "note": "[GSSM, S-methlyl-L-mercaptoglutathione]", "values": [{"measurement": "EC (2-fold QR induction)", "setting": "[1]; cell viability >50%", "result": 87, "unit": "µg/mL"}, {"measurement": "EC (2-fold QR induction)", "setting": "[1]; [4]", "result": 250, "unit": "µM"}, {"measurement": "inhibition at 125 µg/mL", "setting": "[2]", "result": 26, "unit": "%"}]}
{"smiles": "CCCSSC[C@H](NC(=O)CC[C@H](N)C(=O)O)C(=O)NCC(=O)O", "note": "[GSSP, S-propyl-L-mercaptoglutathione]", "values": [{"measurement": "EC (2-fold QR induction)", "setting": "[1]; cell viability >50%", "result": 73, "unit": "µg/mL"}, {"measurement": "EC (2-fold QR induction)", "setting": "[1]; [4]", "result": 190, "unit": "µM"}, {"measurement": "elevation of intracellular GSH over control", "setting": "[3]", "result": "50-70%"}, {"measurement": "inhibition at 125 µg/mL", "setting": "[2]", "result": 34, "unit": "%"}]}
{"smiles": "C/C=C/SSC[C@H](NC(=O)CC[C@H](N)C(=O)O)C(=O)NCC(=O)O", "note": "[GSSPe, S-1-propenyl-L-mercaptoglutathione]", "values": [{"measurement": "EC (2-fold QR induction)", "setting": "[1]; cell viability >50%", "result": 5.3, "unit": "µg/mL"}, {"measurement": "EC (2-fold QR induction)", "setting": "[1]; [4]", "result": 14, "unit": "µM"}, {"measurement": "IC50", "setting": "[2]; cell viability ≧80%", "result": 4.6, "unit": "µg/mL"}, {"measurement": "IC50", "setting": "[2]; [4]", "result": 16, "unit": "µM"}]}
